Data taken from patent publication US12497392B2, “EP300/CBP inhibitor” (HINOVA PHARMACEUTICALS INC., priority 2019, dated 2025).
Like-named read-outs stand apart in the source and are kept apart here.

Legend:
[1] = target: CBP BRD (Homo sapiens (Human), UniProt Q92793); assay: CBP AlphaScreen bromodomain (BRD) binding test
Method: (§1) CBP and EP300AlphaScreen Test:
(§2) • 1. Prepare 1× concentration of test buffer • 2. Preparation of compound
(§3) The compound was firstly diluted in a ratio of 1:1000 relative to the final concentration using a Precision automatic sampler (by 3× gradient dilution method): • 1) 50 μL of compound solution with a storage concentration of 10 mM was transferred to A2 well of a 96-well plate using an Echo automatic sampler. • 2) 30 μL of DMSO was transferred to well A1, and wells A3 to A12 with Precision™. • 3) 15 μL solution was transferred from A2 to A3 by Precision, and this operation was sequentially repeated until 15 μL solution was transferred from well A10 to well A11. Thus, a 1:3 gradient dilution was completed. • 4) The compound plate was centrifuged at a speed of 1000 r/min for one minute. • 3. Preparation of test plate
(§4) 20 nL of solution was transferred from each concentration well of the compound plate to the test plate using an Echo automatic sampler: from well A1 of the preparation plate to wells A1 and A2 of the test plate, and from well A2 of the preparation plate to wells A3 and A4 of the test plate. • 4. Binding test of bromodomain (BRD) • 1) Preparation of 2-fold solution of protein and polypeptide
(§5) The protein and polypeptide were dissolved in a 1× concentration of detection buffer. • 2) 10 μL of protein and polypeptide solution was transferred to each well in columns 3 to 24 in the test plate, and 10 μL of 1× test buffer was transferred to wells in columns 1 to 2 in the test plate as negative control. • 3) The test plate was centrifuged at a speed of 1000 r/min for one minute. • 4) The test plate was incubated at room temperature for 15 min. • 5) A 2-fold receptor and donor solution was prepared by dissolving acceptor and donor beads with one-fold test buffer. • 6) 2-fold receptor and donor solutions were transferred to the test plate.
(§6) 15 μL of acceptor and donor solution was added and light was avoided. • 7) The test plate was centrifuged at a speed of 1000 r/min for one minute and then incubated at room temperature for 60 min. • 5. The Endpoints were Read in EnSpire and Alpha Modes. • 6. Curve fitting
(§7) The experimental data was entered into an Excel document and the inhibition rate Inh % was calculated using equation (1): Inh %=(Max−Signal)/(Max−Min)×100 Equation (1): wherein, Max: control containing DMSO, Min: low control containing DMSO,
(§8) The obtained data were entered into the XL-Fit software, and the IC50 value was calculated using equation (2): Y=Bottom+(Top−Bottom)/(1+10^((Log IC50−X)×Hill Slope)) Equation (2): II. Experimental Results

[2] = target: EP300 BRD (Homo sapiens (Human), UniProt Q09472); assay: EP300 AlphaScreen bromodomain (BRD) binding test
Method: as §1, §2, §3, §4, §5, §6, §7, §8

[3] = tested on: CWR22RV1 cells; assay: Proliferation of prostate cancer CWR22RV1 cells (CCK-8, 6 days); type: cell-based
Method: (§9) • (1) CWR22RV1 prostate cancer cells were subcultured in cell culture medium, and well-grown cells were inoculated into 96-well plates with 80 μL per well and 1500 cells per well, and then the plate was cultured overnight at 37° C. in a 5% CO2 incubator. • (2) Drug was prepared as 30 mM of stock solution with dimethylsulfoxide (DMSO). Prior to use, the stock solution was diluted in a ratio of 1:3 with DMSO and then further diluted in a ratio of 1:3 to obtain 9 gradient concentrations. Each concentration of compound was diluted in a ratio of 1:200 with culture medium (to ensure the concentration of DMSO in the culture system was 0.1%). Two wells were set for each concentration. 20 μL of diluted compound solution was added to the cell culture well (with a final concentration of 10 μM, 3.3 μM, 1.1 μM, etc.), and then the plate was gently shaken to mix well. In addition, three negative control wells containing only cells and three blank control wells containing only culture medium (6 wells being each added with DMSO diluted in a ratio of 1:200 using 20 μL of culture medium) were included. 2. Test Results: • (1) After the plate was cultured for 6 days, 10 μL of CCK-8 was added to each well, and then the plate was continually cultured in a 5% CO2 incubator at 37° C. for 2.5 h. • (2) The absorbance (OD value) was measured at 450 nm with a microplate reader. • (3) Data were analyzed using the Dose-response-inhibition equation in the software GraphPad Prisms 6 to obtain IC50 values. 3. Experimental Results

[4] = tested on: VCAP; assay: Proliferation of VCAP prostate cancer cells (CCK-8); type: cell-based; conditions: prostate cancer cell line VCAP, read-out: IC50 against VCAP
Method: as §9
(§10) Using the same method as in Example 2, CWR22RV1 cells were replaced with tumor cells in Table 3, and for the inhibitory activities against these tumor cells, the IC50 values (nM) of the compounds according to the present invention were tested and calculated.

[5] = tested on: LNCAP-AR; assay: Proliferation of LNCAP-AR prostate cancer cells (CCK-8); type: cell-based; conditions: prostate cancer cell line LNCAP-AR; read-out: IC50 against LNCAP-AR
Method: as §9, §10

[6] = tested on: LNCAP; assay: Proliferation of LNCAP prostate cancer cells (CCK-8); type: cell-based; conditions: prostate cancer cell line LNCAP, read-out: IC50 against LNCAP
Method: as §9, §10

[7] = tested on: MOLM-16; assay: Proliferation of MOLM-16 leukemia cells (CCK-8); type: cell-based; conditions: leukemia cell line MOLM-16, read-out: IC50 against MOLM-16
Method: as §9, §10

[8] = tested on: MCF-7; assay: Proliferation of MCF-7 breast cancer cells (CCK-8); type: cell-based; conditions: breast cancer cell line MCF-7, read-out: IC50 against MCF-7
Method: as §9, §10

[9] = tested on: OPM-2; assay: Proliferation of OPM-2 multiple myeloma cells (CCK-8); type: cell-based; conditions: multiple myeloma cell line OPM-2, read-out: IC50 against OPM-2
Method: as §9, §10

[10] = tested on: CWR22RV1 cells; assay: Combination with CDK4/6 inhibitor palbociclib, proliferation of CWR22RV1 prostate cancer cells; type: cell-based; conditions: for IC50: read-out: IC50 against CWR22RV1 cells
Method: (§11) Prior to use, the stock solution was diluted in a ratio of 1:3 with DMSO and then further diluted in a ratio of 1:3 to obtain 9 gradient concentrations. Each concentration of compound was diluted in a ratio of 1:200 with culture medium (to ensure the concentration of DMSO in the culture system was 0.1%). Two wells were set for each concentration. 20 μL of diluted compound solution was added to the cell culture well (with a final concentration of 10 μM, 3.3 μM, 1.1 μM, etc.); the stock solution of palbociclib was diluted with the culture medium as 500 nM, 150 nM, 50 nM, 5 nM, respectively, and then 20 μL of diluted palbociclib solution was added to the cell culture well ([…]). The plate was gently shaken to mix well. In addition, three negative control wells containing only cells and three blank control wells containing only culture medium (6 wells being each added with DMSO diluted in a ratio of 1:200 using 20 μL of culture medium) were included. 2. Test Results: • (1) After the plate was cultured for 6 days, 10 μL of CCK-8 was added to each well, and then the plate was continually cultured in a 5% CO2 incubator at 37° C. for 2.5 h. • (2) The absorbance (OD value) was measured at 450 nm with a microplate reader. • (3) Data were analyzed using the Dose-response-inhibition equation in the software GraphPad Prisms 6 to obtain IC50 values. 3. Experimental Results

[11] = tested on: MCF-7 cells; assay: Combination with CDK4/6 inhibitor palbociclib, proliferation of MCF-7 breast cancer cells; type: cell-based; conditions: for IC50: Homo sapiens, read-out: IC50 against MCF-7 cells
Method: as §11
Using the same method as in Example 4, CWR22RV1 cells were replaced with MCF-7 cells, and for the inhibitory activities against the proliferation of MCF-7 cells, the IC50 values (nM) of the compounds according to the present invention, palbociclib, and the combination of the compound according to the present invention and palbociclib were tested and calculated.

[12] = CWR22Rv1, 144 h, 6 days, CCK-8, class symbols, read-out: IC50 against CWR22RV1 cells
[13] = compound 172 + palbociclib, in words

CBP BRD, sequence (Q92793 1085-1192): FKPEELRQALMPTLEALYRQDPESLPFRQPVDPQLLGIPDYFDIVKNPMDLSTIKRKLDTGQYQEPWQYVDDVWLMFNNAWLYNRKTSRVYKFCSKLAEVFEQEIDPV
EP300 BRD, sequence (Q09472 1049-1156): as the sequence (Q92793 1085-1192) above, with N47S, V73I, F93Y, A98S counted along it

Molecule	IC50 [1] [nM]	IC50 [2] [nM]	IC50 [3, 12] [nM]	IC50 ([4]; Homo sapiens) [nM]	IC50 [5] [nM]	IC50 ([6]; Homo sapiens) [nM]	IC50 ([7]; MOLM16) [nM]	IC50 ([8]; Homo sapiens, MCF7) [nM]	IC50 ([9]; Homo sapiens) [nM]	also measured
CO[C@H]1CC[C@H](n2c([C@@H]3CCOCC(=O)N3c3ccc(F)c(F)c3)nc3cc(-c4c(C)noc4C)ccc32)CC1 [Compound 106]	4.8	2.2	500 to 2000	–	–	–	–	–	–	–
CO[C@H]1CC[C@H](n2c([C@H]3COCC(=O)N3c3ccc(F)c(F)c3)nc3cc(-c4c(C)noc4C)ccc32)CC1 [Compound 112, (S)-4-(3,4-difluorophenyl)-5-(5-(3,5-dimethylisoxazol-4-yl)-1-((trans)-4-methoxycyclohexyl)-1H-benzo[d]imidazol-2-yl)morphine-3-one]	2	1.7	–	–	–	–	–	–	–	IC50 ([3]; CWR22Rv1, 144 h, read-out: IC50 against CWR22RV1 cells): < 500 nM; IC50 ([3]; CWR22Rv1, 144 h, read-out: IC50 against CWR22RV1 prostate cancer cells): < 500 nM
CO[C@H]1CC[C@H](n2c([C@@H]3CCOC(=O)N3c3ccc(Cl)c(F)c3)nc3cc(-c4c(C)noc4C)ccc32)CC1 [Compound 117, (S)-3-(3-fluoro-4-chlorophenyl)-4-(5-(3,5-dimethylisoxazol-4-yl)-1-((trans)-4-methoxycyclohexyl)-1H-benzo[d]imidazol-2-yl)-1,3-oxazinane-2-one]	0.71	0.73	< 500	< 500	< 500	< 500	< 500	< 500	< 500	IC50 ([3]; CWR22Rv1, 144 h, 6 days, CCK-8, bound stated, read-out: IC50 against CWR22RV1 prostate cancer cells): < 500 nM
COc1cccc(-c2nc3cc(-c4c(C)noc4C)ccc3n2[C@H]2CC[C@H](OC)CC2)c1-c1ccc(F)cc1 [Compound 141]	22	9.6	> 2000	–	–	–	–	–	–	–
CO[C@H]1C[C@@H](n2c([C@@H]3CCOC(=O)N3c3ccc(F)c(F)c3)nc3cc(-c4c(C)noc4C)ccc32)C1 [Compound 143]	4.7	2.7	500 to 2000	–	–	–	–	–	–	–
CCO[C@H]1CC[C@H](n2c([C@@H]3CCOC(=O)N3c3ccc(F)c(F)c3)nc3cc(-c4c(C)noc4C)ccc32)CC1 [Compound 171, (S)-3-(3,4-difluorophenyl)-4-(5-(3,5-dimethylisoxazol-4-yl)-1-((trans)-4-ethoxycyclohexyl)-1H-benzo[d]imidazol-2-yl)-1,3-oxazinane-2-one]	1.8	2.4	500 to 2000	< 500	< 500	< 500	< 500	< 500	< 500	–
CCO[C@H]1CC[C@H](n2c([C@@H]3CCOC(=O)N3c3ccc(Cl)c(F)c3)nc3cc(-c4c(C)noc4C)ccc32)CC1 [Compound 172, (S)-3-(4-chloro-3-fluorophenyl)-4-(5-(3,5-dimethylisoxazol-4-yl)-1-((trans)-4-ethoxycyclohexyl)-1H-benzo[d]imidazol-2-yl)-1,3-oxazinane-2-one]	2.3	2.1	500 to 2000	< 500	< 500	< 500	< 500	< 500	< 500	IC50 ([10]; CWR22Rv1, 172 in combination with 10 nM palbociclib): 26 nM; IC50 ([10]; CWR22Rv1, 172 in combination with 100 nM palbociclib): < 1 nM; IC50 ([10]; CWR22Rv1, 172 in combination with 100-300 nM of palbociclib): < 1 nM; IC50 ([10]; CWR22Rv1, administrated alone): 1500 nM; effect of combination with palbociclib on CWR22RV1 prostate cancer cells [10, 13]: synergistic inhibitory effect; IC50 ([11]; MCF7, 172 in combination with 10 nM palbociclib): 27 nM; IC50 ([11]; MCF7, 172 in combination with 100 nM palbociclib): 9 nM; IC50 ([11]; MCF7, 172 in combination with 300 nM palbociclib): 7 nM; IC50 ([11]; MCF7, 172 in combination with 100-300 nM of palbociclib): < 10 nM; IC50 ([11]; MCF7, administrated alone): 72 nM; effect of combination with palbociclib on MCF-7 breast cancer cells [11, 13]: synergistic inhibitory effect
CC(=O)c1c(C)c2cnc(Nc3ccc(N4CCNCC4)cn3)nc2n(C2CCCC2)c1=O [palbociclib, reference compound]	–	–	–	–	–	–	–	–	–	IC50 ([10]; CWR22Rv1, administrated alone): 100 nM; IC50 ([11]; MCF7, administrated alone): 12800 nM
(S)-4-(3,4-difluorophenyl)-5-(5-(3,5-dimethylisoxazol-4-yl)-1-((trans)-4-deuteromethoxycyclohexyl)-1H-benzo[d]imidazol-2-yl)morphine-3-one [Compound 113]	–	–	–	–	< 500	–	–	–	–	IC50 ([3]; 6 days, CCK-8, bound stated, read-out: IC50 against CWR22RV1 prostate cancer cells): < 500 nM; IC50 ([3]; 6 days, CCK-8, class symbols, read-out: IC50 against CWR22RV1 cells): < 500 nM; IC50 [4]: < 500 nM; IC50 [6]: < 500 nM; IC50 [7]: < 500 nM; IC50 [8]: < 500 nM; IC50 [9]: < 500 nM
